Experimental data as given in paper PMC5382913, “Interactions of the periplasmic binding protein CeuE with Fe(III) n-LICAM^4− siderophore analogues of varied linker length” (Scientific Reports, 2017).

Assays:
CeuE mutant H227L [1] = biological target: T1, CeuE mutant H227L (Campylobacter jejuni, UniProt Q0P8Q4, H247L); test: Intrinsic fluorescence quenching titration, CeuE mutant H227L; details: 240 nM protein in 40 mM Tris-HCl pH 7.5, 150 mM NaCl; 1:1 binding model; triplicate
T1 sequence (Q0P8Q4 44-330 H247L): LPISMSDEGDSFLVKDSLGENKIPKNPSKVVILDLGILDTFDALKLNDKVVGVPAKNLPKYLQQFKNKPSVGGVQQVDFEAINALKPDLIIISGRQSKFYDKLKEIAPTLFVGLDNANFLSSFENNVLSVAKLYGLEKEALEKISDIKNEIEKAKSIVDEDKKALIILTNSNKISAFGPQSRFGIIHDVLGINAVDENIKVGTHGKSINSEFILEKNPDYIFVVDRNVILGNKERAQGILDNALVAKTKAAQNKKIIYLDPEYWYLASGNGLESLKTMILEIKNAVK
From the text: (§1) The affinities of CeuE for the four Fe-n-Lic complexes were quantified using intrinsic fluorescence quenching, Table 1, with measurements carried out in triplicate. The data were fitted to a 1:1 binding model and analyzed by non-linear regression. […] An attempt to determine the Kd value of Fe-5-Lic by using a more dilute protein solution was unsuccessful because of the inherent decrease in emission intensity reaching the detection limit of the fluorimeter.
(§2) The binding studies with wild type CeuE were followed by titrations to determine the ligand affinity of all five mutants. Fe-5-Lic was chosen because of its strong binding to wild type CeuE and because its linker length matches that of natural catecholate siderophores. Mutation of the Fe(III)-coordinating tyrosine led to a drastic drop in binding affinity in both the single (Y228F) and the double mutants (H227L/Y288F and H227A/Y288F), with Kd values above 1 μM. In contrast, the effect of mutating the histidine was less pronounced. […] However, there is an additional entropic contribution to consider.
(§3) Subsequently, titrations were carried out with Fe-4-Lic, Fe-6-Lic and Fe-8-Lic to identify trends in the affinity for mutants H227L and H227A (Fig. 6(b) and (c)) (Table 1). The resulting Kd values show trends similar to that observed for wild type, but with systematically weaker binding.
(§4) Fluorescence quenching studies with CeuE were carried out on a Hitachi F-4500 fluorescence spectrophotometer as previously reported.
(§5) A 240 nM solution of CeuE in 40 mM Tris-HCl pH 7.5, 150 mM NaCl was prepared and the concentration verified by both the Bradford method and UV-vis absorbance at 280 nm, using the molar absorbance coefficient predicted by ProtParam (15930 mol^−1 dm^3 cm^−1)[43]. The CeuE solution (2 mL) was titrated stepwise with 16 aliquots of a 12 μM Fe-n-Lic solution resulting in a concentration range of Fe-n-Lic of 0 to 1.19 μM. The observed emission intensity was corrected for photomultiplier tube response and buffer subtracted, then integrated between 310 and 410 nm. The data were normalized and analyzed by nonlinear regression using a one-site binding model in DynaFit[26]. Each system was analyzed in triplicate and the average dissociation constants were calculated as reported previously.

CeuE mutant H227A [2] = biological target: T2, CeuE mutant H227A (Campylobacter jejuni, UniProt Q0P8Q4, H247A); test: Intrinsic fluorescence quenching titration, CeuE mutant H227A; details: 240 nM protein in 40 mM Tris-HCl pH 7.5, 150 mM NaCl; 1:1 binding model; triplicate
T2 sequence (Q0P8Q4 44-330 H247A): T1 sequence (Q0P8Q4 44-330 H247L)
From the text: as §1, §2, §3, §4, §5

WT CeuE = biological target: T3, WT CeuE (Campylobacter jejuni, UniProt Q0P8Q4); test: Intrinsic fluorescence quenching titration, wild type CeuE; details: 240 nM protein in 40 mM Tris-HCl pH 7.5, 150 mM NaCl; 1:1 binding model; triplicate
T3 sequence (Q0P8Q4 44-330): T1 sequence (Q0P8Q4 44-330 H247L)
From the text: as §1, §4, §5

[3] = biological target: T4, CeuE double mutant H227L/Y288F (Campylobacter jejuni, UniProt Q0P8Q4, H247L/Y308F); test: Intrinsic fluorescence quenching titration, CeuE double mutant H227L/Y288F; assay type: binding
T4 sequence (Q0P8Q4 44-330 H247L/Y308F): T1 sequence (Q0P8Q4 44-330 H247L)
Experimental: as §2, §4
as §5, with “The observed emission intensity was corrected for photomultiplier tube response and buffer subtracted, then integrated between 310 and 410 nm.” left out

CeuE mutant H227A [4] = biological target: T2, CeuE mutant H227A; test: Circular dichroism of LMCT band, mutant H227A; assay type: binding; details: 50 μM in 100 mM TRIS buffer, 150 mM NaCl, 0.5% DMSO, pH 7.5
From the text: (§6) To confirm that the preference for the Λ-configuration is retained in solution, circular dichroism (CD) spectroscopy was used to probe the ligand-to-metal charge transfer (LMCT) band (Fig. 8(a)). The minimum and maximum of the region of the LMCT band at approximately 408 nm and 595 nm, respectively, are indicative of the Λ-configuration[29], with no CD signal observed in the absence of either the protein or ligand, confirming that the protein selectively binds the Λ-configuration.
(§7) The Y228F mutants gave no signal, confirming a lack of Λ-configuration induction, which may indicate a lack of ligand binding. […] Complexes of H227L and H227A were then prepared with all four Fe-n-Lic complexes.
(§8) Solutions of wild type CeuE and mutant proteins were diluted to 5 × 10^−5 M in buffer containing 150 mM NaCl and 0.11 M Tris, adjusted to pH 7.5. […]
(§9) Spectra were recorded using a solution containing 880 μL 0.11 M Tris pH 7.5, 150 mM NaCl buffer, 100 μL (Fe(III)-n-Lic (n = 4, 5, 6, 8) NTA solution and 20 μL to 5 × 10^−5 M CeuE, resulting in a 50:1 excess of ligand to ensure full binding.
(§10) The spectra were recorded from 300–700 nm and buffer subtracted (data pitch […], scan speed 100 nm min^−1, response 2 seconds, bandwidth 2 nm, path length 1 cm). The spectra were recorded 5 times and averaged.

CeuE single mutant Y228F = biological target: T5, CeuE single mutant Y228F (Campylobacter jejuni, UniProt Q0P8Q4, Y308F); test: Intrinsic fluorescence quenching titration, CeuE single mutant Y228F; assay type: binding
T5 sequence (Q0P8Q4 44-330 Y308F): T1 sequence (Q0P8Q4 44-330 H247L)
Experimental: as §2, §4
as §5, with “The observed emission intensity was corrected for photomultiplier tube response and buffer subtracted, then integrated between 310 and 410 nm.” left out

CeuE mutant H227L [5] = biological target: T1, CeuE mutant H227L; test: Circular dichroism of LMCT band, mutant H227L; assay type: binding; details: 50 μM in 100 mM TRIS buffer, 150 mM NaCl, 0.5% DMSO, pH 7.5
From the text: as §6, §7, §8, §9, §10

[6] = biological target: T6, CeuE double mutant H227A/Y288F (Campylobacter jejuni, UniProt Q0P8Q4, H247A/Y308F); test: Intrinsic fluorescence quenching titration, CeuE double mutant H227A/Y288F; assay type: binding
T6 sequence (Q0P8Q4 44-330 H247A/Y308F): T1 sequence (Q0P8Q4 44-330 H247L)
Experimental: as §2, §4
as §5, with “The observed emission intensity was corrected for photomultiplier tube response and buffer subtracted, then integrated between 310 and 410 nm.” left out

CeuE Y228F mutants = test: Circular dichroism of LMCT band, Y228F mutants; assay type: binding, Campylobacter jejuni; details: 50 μM in 100 mM TRIS buffer, 150 mM NaCl, 0.5% DMSO, pH 7.5
From the text: as §6, §7, §8, §9, §10

## O=C(NCCCCNC(=O)c1cccc(O)c1O)c1cccc(O)c1O [Fe-4-Lic]
CeuE mutant H227L [1]
  Kd: 90 ± 30 nM
CeuE mutant H227A [2]
  Kd: 131 ± 28 nM
WT CeuE
  Kd: 21 ± 6 nM

## O=C(NCCCCCNC(=O)c1cccc(O)c1O)c1cccc(O)c1O [Fe-5-Lic]
[3]
  Kd: > 1000 nM
CeuE mutant H227A [4]
  CD signal of Λ-configuration (LMCT band), mutant H227A: Λ-configuration signal was observed
CeuE single mutant Y228F
  Kd: > 1000 nM
CeuE mutant H227L [1]
  Kd: 22 ± 10 nM
CeuE mutant H227A [2]
  Kd: 35 ± 14 nM
CeuE mutant H227L [5]
  CD signal of Λ-configuration (LMCT band), mutant H227L: Λ-configuration signal was observed
[6]
  Kd: > 1000 nM
CeuE Y228F mutants
  CD signal of Λ-configuration (LMCT band), Y228F mutants: no signal
WT CeuE
  Kd: < 10 nM

## O=C(NCCCCCCNC(=O)c1cccc(O)c1O)c1cccc(O)c1O [Fe-6-Lic]
CeuE mutant H227L [1]
  Kd: 65 ± 21 nM
CeuE mutant H227A [2]
  Kd: 41 ± 7 nM
WT CeuE
  Kd: 33 ± 8 nM

## O=C(NCCCCCCCCNC(=O)c1cccc(O)c1O)c1cccc(O)c1O [Fe-8-Lic]
CeuE mutant H227L [1]
  Kd: 112 ± 21 nM
CeuE mutant H227A [2]
  Kd: 125 ± 36 nM
WT CeuE
  Kd: 58 ± 8 nM
